{"source": "patent US6461863B1", "about": "“Modifying insect cell gylcosylation pathways with baculovirus expression vectors” (University of Wyoming, priority 1996, dated 2002)", "key": {"Sf9 α1,2-mannosidase": {"target": "T1, Sf9 α1,2-mannosidase (Spodoptera frugiperda, UniProt O18498)", "T1 construct": "This screening procedure identified a full-length α1,2-mannosidase cDNA clone which contains an ORF; made in house; host or cells: Sf9 cells infected with recombinant baculovirus (pVL1393 transfer plasmid, polyhedrin promoter, BacPAK6 DNA); Triton X-100 cell lysate, not purified", "T1 sequence (O18498 1-670)": "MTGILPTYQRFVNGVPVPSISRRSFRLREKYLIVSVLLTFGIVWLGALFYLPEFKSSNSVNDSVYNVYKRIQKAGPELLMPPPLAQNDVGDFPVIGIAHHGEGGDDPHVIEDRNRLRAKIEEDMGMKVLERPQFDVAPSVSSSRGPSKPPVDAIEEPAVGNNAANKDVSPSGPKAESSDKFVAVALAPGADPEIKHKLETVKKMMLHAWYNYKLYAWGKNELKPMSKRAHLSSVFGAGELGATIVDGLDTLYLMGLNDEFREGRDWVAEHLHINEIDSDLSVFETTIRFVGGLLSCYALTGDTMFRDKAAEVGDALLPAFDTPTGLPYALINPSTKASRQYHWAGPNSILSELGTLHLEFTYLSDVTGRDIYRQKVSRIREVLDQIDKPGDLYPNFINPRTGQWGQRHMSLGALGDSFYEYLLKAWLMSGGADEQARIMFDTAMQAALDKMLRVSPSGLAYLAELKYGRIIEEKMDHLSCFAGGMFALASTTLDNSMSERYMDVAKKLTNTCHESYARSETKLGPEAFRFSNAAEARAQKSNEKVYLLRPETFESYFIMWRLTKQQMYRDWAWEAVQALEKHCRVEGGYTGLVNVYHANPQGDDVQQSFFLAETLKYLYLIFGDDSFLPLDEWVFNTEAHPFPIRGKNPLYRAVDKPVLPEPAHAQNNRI", "assay": "α1,2-mannosidase activity assay, release of [3H]mannose from [3H]Man9GlcNAc by lysates of recombinant baculovirus-infected Sf9 cells", "format": "biochemical", "details": "cell lysates at 48 hours postinfection (FIG. 15B); for α-mannosidase activity in recombinant baculovirus-infected cells, inhibition by dMNJ: 500 μM dMNJ", "procedure": "Sf9 cell lysates were used for α1,2-mannosidase activity assays with [3H]Man9GlcNAc as described previously (Herscovics and Jelinek-Kelly, 1987) with some modifications. The cells were seeded into 25 cm tissue culture flasks (Corning Glass Works, Corning, N.Y.) at a density of 3 million cells per flask and infected at a multiplicity of infection of 10 plaque forming units per cell with either a recombinant baculovirus encoding the Sf9 α1,2-mannosidase cDNA under the control of the polyhedrin promoter, or wild type baculovirus as a control. The cells were harvested by centrifugation at selected times after infection, washed with 100 mM Na^+MES (pH 6.0), and lysed using 1 ml per 30,000 cells of the same buffer containing 0.5% Triton X-100 with or without 80 mM EDTA.\n[…] of the lysates were used in each reaction of the α1,2-mannosidase activity assays. Cell lysates for negative control reactions were boiled for 3 min prior to being added to the reactions. All reactions were carried out in a total volume of […] containing 75 mM Na^+MES (pH 6.0), 0.0625% Triton X-100, and 6000 cpm of [^3H]MangGlcNAc. In addition, some reactions contained CaCl2, MgCl2, EDTA, or dMNJ. The reactions were incubated at 37° C. for 2.5 hours, boiled for 2 min, and 250 ml of a 5 mM solution of CaCl2, MgCl2, and MnCl2, and 175 ml of a 2.25 mg/ml solution of concanavalin A (Boehringer-Mannheim, Indianapolis, Ind.) in 3.8 M NaCl were added to each reaction. The solutions were vortexed gently and incubated at room temperature for two minutes, then 1 ml of 25% PEG-8000 was added and the solutions were vortexed and incubated for another 5 min at room temperature. The solutions were then centrifuged for 2 min at 10,000×g, 1 ml of the supernatant was added to 4 ml of a scintillation cocktail (Ultima Gold™; Packard Instrument Company, Meriden, Conn.), and radioactivity was measured using a Beckman liquid scintillation counter (Model LS 60001C; Beckman Instruments, Inc., Fullerton, Calif.)."}, "N-linked glycans on gp64": {"tested_on": "N-linked glycans on gp64", "details": "baculovirus-infected lepidopteran cells (Jarvis and Garcia, 1994); cited from earlier work"}, "Sf9 α-mannosidase II": {"target": "T2, Sf9 α-mannosidase II (Spodoptera frugiperda, UniProt O18497)", "T2 construct": "The assembled full-length open reading frame of the Sf9 α-mannosidase II cDNA; made in house; host or cells: Sf9 cells infected with recombinant baculovirus (pVL1392 transfer vector, polyhedrin promoter); Triton X-100 cell extract, not purified", "T2 sequence (O18497 1-1130)": "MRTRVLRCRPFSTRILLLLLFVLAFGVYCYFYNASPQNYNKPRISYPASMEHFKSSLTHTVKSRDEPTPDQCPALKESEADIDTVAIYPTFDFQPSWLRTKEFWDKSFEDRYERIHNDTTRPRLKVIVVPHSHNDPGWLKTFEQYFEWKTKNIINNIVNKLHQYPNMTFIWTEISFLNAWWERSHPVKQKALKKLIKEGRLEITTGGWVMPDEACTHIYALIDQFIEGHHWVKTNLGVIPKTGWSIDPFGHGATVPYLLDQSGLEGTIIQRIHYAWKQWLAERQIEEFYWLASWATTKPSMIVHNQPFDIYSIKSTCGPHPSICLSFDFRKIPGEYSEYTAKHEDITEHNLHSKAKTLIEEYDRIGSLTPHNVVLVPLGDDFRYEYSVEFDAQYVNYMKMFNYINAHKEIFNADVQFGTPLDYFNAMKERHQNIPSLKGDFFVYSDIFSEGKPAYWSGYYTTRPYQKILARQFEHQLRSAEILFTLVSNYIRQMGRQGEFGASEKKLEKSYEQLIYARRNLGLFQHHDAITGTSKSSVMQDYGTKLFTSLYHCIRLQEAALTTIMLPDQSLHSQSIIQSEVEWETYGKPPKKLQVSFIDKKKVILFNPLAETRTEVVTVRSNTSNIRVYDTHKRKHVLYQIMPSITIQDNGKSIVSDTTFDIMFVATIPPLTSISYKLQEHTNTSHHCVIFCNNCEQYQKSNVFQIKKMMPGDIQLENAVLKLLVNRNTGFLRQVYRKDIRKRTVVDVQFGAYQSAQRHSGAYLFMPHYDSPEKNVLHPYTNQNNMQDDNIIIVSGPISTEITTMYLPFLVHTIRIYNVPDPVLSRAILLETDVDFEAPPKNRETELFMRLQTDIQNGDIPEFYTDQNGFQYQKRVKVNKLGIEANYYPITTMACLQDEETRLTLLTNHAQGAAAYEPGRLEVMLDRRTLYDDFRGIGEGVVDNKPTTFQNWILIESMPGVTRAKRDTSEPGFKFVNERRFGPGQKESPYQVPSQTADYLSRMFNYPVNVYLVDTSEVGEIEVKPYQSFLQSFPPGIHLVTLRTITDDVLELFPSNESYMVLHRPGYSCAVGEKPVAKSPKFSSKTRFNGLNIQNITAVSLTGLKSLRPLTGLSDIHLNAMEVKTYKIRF", "assay": "α-mannosidase activity assay with p-nitrophenyl α-D-mannopyranoside on extracts of recombinant baculovirus-infected Sf9 cells", "format": "biochemical", "details": "various concentrations of swainsonine; extracts 24, 36, 48 h postinfection (FIG. 7B)", "procedure": "Sf9 cells were infected with wild-type or recombinant baculoviruses were harvested by centrifugation at various times after infection, and pellets containing 1×10^6 cells were resuspended in 100 μl of assay buffer (0.1 M MES, pH 6.3; 0.5% Triton-X-100). The cell suspensions were assayed for o-mannosidase activity by mixing 25 μl of the cell extracts with 25 μl of 10 mM p-nitrophenyl α-D-mannopyranoside in the presence or absence of various concentrations of swainsonine. The reaction mixtures were incubated in a microtiter plate for 1 hr at 37° C. with gentle agitation, then quenched by the addition of 200 μl of stop solution (133 mM glycine, 67 mM NaCl, 83 mM Na2CO3). Absorbance was measured at 410 nm on a plate reader (Dynatech Model MR 5000), corrected for light scattering at 570 nm, and the corrected absorbance values were converted to nmol p-nitrophenol using a standard curve produced on the same plate reader."}}, "data": [{"molecule": "OC[C@H]1NC[C@@H](O)[C@@H](O)[C@@H]1O", "note": "[dMNJ, 1-deoxymannojirimycin]", "values": [{"measurement": "α-mannosidase activity in recombinant baculovirus-infected cells, inhibition by dMNJ", "setting": "Sf9 α1,2-mannosidase", "value": "strongly inhibited"}, {"measurement": "α-mannosidase activity in recombinant baculovirus-infected cells, inhibition by dMNJ", "setting": "Sf9 α1,2-mannosidase; listed as 1-deoxymannojirimycin", "value": "inhibited"}, {"measurement": "processing of N-linked glycans on gp64", "setting": "N-linked glycans on gp64", "value": "block the processing"}]}, {"molecule": "O=C(O)CN(CCN(CC(=O)O)CC(=O)O)CC(=O)O", "note": "[EDTA]", "values": [{"measurement": "α-mannosidase activity in recombinant baculovirus-infected cells, inhibition by EDTA", "setting": "Sf9 α1,2-mannosidase; 10 mM EDTA, reversed by calcium, not magnesium", "value": "strongly inhibited"}]}, {"molecule": "O[C@H]1[C@H]2[C@H](O)CCCN2C[C@H]1O", "note": "[swainsonine]", "values": [{"measurement": "α-mannosidase activity in recombinant baculovirus-infected cell extracts in the presence of swainsonine", "setting": "Sf9 α-mannosidase II", "value": "sensitive"}]}]}
